Experimental data taken from a melting point compilation (Tetko et al.; mined from patent text by program, amines drawn as free bases though some values may be those of a salt).

| melting point | Structure (SMILES) |
| --- | --- |
| 135 to 137 °C | CCNC(=O)c1c(I)cccc1[Si](C)(C)C |
| 136 °C | COC(=O)C(Cl)Cc1ccc2ccc(Oc3c(Cl)cc(C(F)(F)F)cc3Cl)cc2c1 (stereo not given) |
| 143 to 145 °C | Cc1cccc2nc3c(c(N)c12)CCCC3 |
| 58 to 59 °C | CCCCCCC(C)(C)c1ccc(Br)c(OCc2ccccc2)c1 |
| 303 to 307 °C | CS(=O)(=O)NC(=O)N[C@H]1CCN(c2ccc3c(NC(=O)CC4CCCCC4)c(Cl)ccc3n2)C1 |
| 188 to 190 °C | COc1cccc(-c2c[nH]c3ncnc(N)c23)c1 |
| 115 °C | CC(=O)c1c(Cl)cccc1N1CCN(CCCCOc2ccc3c(n2)NC(=O)CC3)CC1 |
| 138 to 139 °C | Cc1cccc(Oc2nc(-c3c[nH]nc3C)cs2)n1 |
| 119 °C | CCOC(=O)Cc1cc(C(=O)OC)ccc1NC(C)=O |
| 227 °C | COc1cc2c(cc1OC)C(=O)C(=Cc1cc(Cl)cc(Cl)c1)C2 |
| 140 to 141 °C | Cc1cccc2c1Sc1c(C)cccc1N2 |
| 259 to 261 °C | CCCOc1cc2[nH]c(=O)[nH]c(=O)c2cc1OC |
| 80 to 81 °C | CC(=O)OCCCC(=C(c1ccccc1)c1ccccc1)c1ccccc1 |
| 127 to 129 °C | C=CCN(CC=C)C(=O)Nc1cc(C)c(S(=O)(=O)C[N+](=O)[O-])c(C)c1 |
| 109 to 110 °C | CCCc1c(OCCCOc2ccc3c(c2CCC)OC(CCC(=O)O)CC3)ccc(C(C)=O)c1O (stereo not given) |
| 214 to 216 °C | Nc1n[nH]cc1-c1cccc(N2CCC(N3CCCC3)CC2)c1 |
| 171 to 172 °C | CCCn1nc(-c2ccc(O)cc2)c2cccc(-c3ccccc3)c21 |
| 255 to 257 °C | CC(=O)NC[C@H]1CN(c2ccc(C(=O)c3cc(C#N)c4ccccn34)cc2)C(=O)O1 |
| 111 to 113 °C | N#CCc1ccc(CN2CCN(c3ccc(F)cc3)CC2)cc1 |
| 140 to 142 °C | CCN1c2ncc(CSc3ccncc3)cc2C(=O)N(C)c2ccc(Cl)nc21 |
| 137 to 139 °C | COC(=O)[C@@H](NC(=O)Nc1n[nH]c(=S)s1)c1ccccc1 |
| 194 to 196 °C | CCCCCCCCCCCCCCCC(=O)Nc1ccc(C(=O)O)cc1C |
| 173 °C | Cn1c(=O)cn[nH]c1=O |
| 141 to 143 °C | COC1=CC(=O)C=CC1=O |
| 135 to 137 °C | CC(C)(OCc1n[nH]c2ccccc12)C(=O)O |

| melting point | Structure (SMILES) |
| --- | --- |
| 197 to 199 °C | CCOCc1nc2c(c(C)c(C)n3nnnc23)n1CCNC(=O)OC(C)(C)C |
| 163 to 165 °C | Cc1nc2cc(Oc3cc(-c4ccc(C(C)(C)C)cc4)ncn3)ccc2s1 |
| 152 to 153 °C | CCc1nc2c(nc1O)CCCC2 |
| 84 to 86 °C | C#CC12CC3CC(C#C)(C1)CC(C#C)(C3)C2 |
| 76.6 to 79.6 °C | CCc1nn2ccccc2c1N(CCCF)C(C)=O |
| 137 °C | COc1cc(Br)cc2c1OCCC2=O |
| 69 to 70 °C | COc1ccc(COC(=O)CCc2nc(-c3ccc(Cl)cc3)co2)cc1 |
| 81 to 82 °C | NCC#CC1(Cl)C=CC=CC1C(=O)c1ccccc1Cl (stereo not given) |
| 182 to 189 °C | CN1CCN(CC2COc3cc4ncnc(Nc5cccc(Br)c5)c4cc3O2)CC1 (stereo not given) |
| 136 to 138 °C | CCCn1c(=O)c2[nH]c(C3CC4CCC3C4)nc2n(CCC)c1=O (stereo not given) |
| 167 to 168 °C | CN(C)CCNC1=CC(=O)c2nc(-c3ccc4ccccc4c3)sc2C1=O |
| 205 to 208 °C | CCCC1C(=O)N(S(C)(=O)=O)C2CCN(S(C)(=O)=O)C12 (stereo not given) |
| 122 to 123 °C | Clc1ccc(NN=Cc2ccccc2)cc1 |
| 158 to 160 °C | Clc1ccc(C2CCN3c4ccccc4C4=NCCN4C23)cc1 (stereo not given) |
| 77 to 79 °C | COc1ccc(S(=O)(=O)C(CC(=O)NO)Cc2ccccc2)cc1OC (stereo not given) |
| 167 to 168 °C | O=C(Nc1ccc(F)cc1)c1cccc([N+](=O)[O-])c1 |
| 189 to 190 °C | COc1ccccc1CNC(=O)c1oc(=O)c2ncccc2c1-c1ccc(C)cc1 |
| 120 to 121 °C | CCOC(=O)Cc1sc(Sc2cc(C(=O)OCC)nc3c(OC)cccc23)nc1C |
| 117 to 118 °C | COc1ccc2nc(C)cc(-n3cncn3)c2c1 |
| 204 to 208 °C | CC=Cc1cc(OC)c(OC)cc1Cc1cnc(N)nc1N |
| 102 to 103 °C | COC(=O)NCC1CC(c2ccccc2)=NO1 (stereo not given) |
| 134 to 136 °C | CC(=O)Nc1cccc(-n2cccc2)c1 |
| 157 to 159 °C | CCC(C)Sc1cc(C(=O)O)cc(N)c1Oc1ccccc1 (stereo not given) |
| 66 to 69 °C | Cc1nc(CN(C)C(=O)N[C@H](C(=O)N[C@@H](Cc2ccccc2)[C@@H](O)C[C@H](Cc2ccccc2)NC(=O)OCc2cccnc2)C(C)C)cs1 |
| 102 to 103 °C | COc1cccnc1CSCCN=C(NC#N)SC |

| melting point | Structure (SMILES) |
| --- | --- |
| 229 to 230 °C | COc1cc(Nc2c(C#N)cnc3cc(-n4cccc4)c(OC)cc23)c(Cl)cc1Cl |
| 63 to 65 °C | C=CCON=C(CC)C1=C(O)CC(c2c(C)c(C)c3c(c2C)CC(C)(C)C3)CC1=O (stereo not given) |
| 143 to 144 °C | CCCc1ccc(-n2nc(Cl)cc2-c2ccc(S(C)(=O)=O)cc2)cc1 |
| > 250 °C | COc1ccc2c(Nc3ccc(C)c(O)c3)c(C#N)cnc2c1 |
| 110 to 113 °C | CCCCC(=O)c1ccc(OCC(=O)O)c(Cl)c1Cl |
| 43 to 45 °C | CCCCCCCCCCCCCCCCCCOc1cccc(CC(=O)OC)c1 |
| 156 to 162 °C | O=C(NCCc1ccc(O)c(O)c1)c1cccnc1 |
| 112 to 114 °C | O=C1Nc2ccccc2C1CCCCN1CCN(c2ccc(Cl)c(Cl)c2)CC1 (stereo not given) |
| 158 °C | CCCCCNc1ncnc2c(C)n[nH]c12 |
| 224 to 226 °C | O=C1CCC(N2Cc3cc(CNC(=O)Nc4cccc(Oc5ccccc5)c4)ccc3C2=O)C(=O)N1 (stereo not given) |
| 184 to 185 °C | CCOC(=O)c1cc(=NS(=O)(=O)c2ccccc2)c2c(Cl)cc(Cl)cc2[nH]1 |
| 83 to 85 °C | c1ccc2c(c1)Oc1ccccc1C2NCc1ccncc1 |
| 66 to 68.5 °C | COC(=O)CC(C#Cc1cccc(-c2nc(C)no2)c1)c1ccc(OC)c(OC2CCCC2)c1 (racemic) |
| 136 to 137 °C | COc1ccccc1C(=O)COc1cccc(NC(=O)c2ccccn2)c1 |
| 254 °C | c1ccc(Oc2ncc(-c3cnc(-c4ccccc4)[nH]3)cn2)cc1 |
| 236 to 240 °C | O=S(=O)(c1ccccc1)c1cc(Cl)c2oc3c(c2c1)CC(O)CC3 (stereo not given) |
| 95 to 96 °C | O=C(c1ccccc1F)C1CCN(C(=O)Oc2ccccc2)CC1 |
| 258 to 260 °C | O=C1CCCC2=C1C(c1cccc(Br)c1)C1=C(CCCC1)N2 (stereo not given) |
| 222 to 223 °C | C=CCSc1nc(N)n(-c2nnc(-c3ccccc3O)s2)n1 |
| 199 to 203 °C | COc1cc2c(cc1OC)CCC(/C=C/C(=N)NO)=C2 |
| 181 to 183 °C | COc1ccc(C(=O)C(=O)c2cccc(-c3ccc(S(C)(=O)=O)cc3)c2-c2ccccc2)cc1OC |
| 142 to 143 °C | CN(C)CCNC(=O)CCn1c(-c2ccc(Cl)cc2)nc2cccnc21 |
| 81 to 82 °C | CC(=O)OCn1c(C(=O)OC(C)C)nc(Cl)c1Cl |

| Structure (SMILES) | melting point |
| --- | --- |
| CN1C(=O)[C@@H](NC(=O)c2ccccc2I)N=C(c2ccccc2)c2ccccc21 | 115 to 120 °C |
| CN1C2CCCC1CN(c1ccc3cc([N+](=O)[O-])ccc3n1)C2 | 166 °C |
